Read-outs that look alike come from different tables or passages of the source.
Columns and labels:
[1] = tested on: human iPSC-derived cardiomyocytes; experiment: Field potential imaging (FPI) with UHD-CMOS-MEA, acute drug treatment; type: cell-based; conditions: for significant changes in any of the measured parameters (17 beat parameters): 10, 100 μM; for BR (beat rate): arrows = direction, – = none; for FPI (concentration at which changes were detected): changed parameters in brackets in each cell
Procedure: Cryopreserved iCell Cardiomyocytes (FUJIFILM Cellular Dynamics, Inc.) were handled according to the supplier’s instructions. Cells were thawed in a 37 °C water bath for approximately 3 min and resuspended in iCell Thawing Medium to prepare a cell suspension at a final concentration of 1 × 10^7 cells/ml. A total of 10 µl of the cell suspension (100,000 cells per chip) was seeded directly onto the fibronectin-coated electrode area of each chip. Chips were incubated at 37 °C for 1 h to allow cell attachment, after which 1 ml of maintenance medium was gently added. […] Thereafter, medium exchanges were performed twice weekly by replacing half the medium volume.
Compounds were dissolved in culture medium containing 0.1% DMSO and administered cumulatively at increasing concentrations. Drug solutions were applied directly to the culture wells, and measurements were initiated 30 min after administration. […] All recordings were performed under spontaneous beating conditions, with no external pacing applied.
Recordings were performed at a sampling rate of 2 kHz, with a 2-min recording duration per condition. Data acquisition was controlled via proprietary software (Sony Semiconductor Solutions), and all raw signals were stored for offline analysis. All experiments were conducted in a humidified environment at 37 °C with 5% CO2, ensuring physiological conditions during both drug exposure and recording.
Spikes from hiPSC-derived cardiomyocytes were initially detected at each electrode using a voltage threshold of ±100 µV via BinViewer software (SCREEN Holdings Co., Ltd, Japan). The resulting spike data were then processed using a custom MATLAB (MathWorks, Natick, MA) script to perform beat detection. Firing count histograms were generated using a bin size of 0.5 ms, and peak detection within these histograms identified the timing and propagation duration of beats across the electrode array. For each electrode, the maximum spike amplitude and its corresponding peak timing were calculated to generate heat maps of field potential amplitude and activation timing. […]

[2] = tested on: human iPSC-derived cardiomyocytes; experiment: PCA of beat parameters: cardiotoxicity risk and mechanism classification; type: cell-based; conditions: for position in PCA space: across all tested concentrations
Procedure: Each parameter set was evaluated for its ability to separate cardiotoxic and non-cardiotoxic compounds while maintaining minimal variance among negative controls. […] To assess cardiotoxicity, PCA scores of test compounds were plotted in the PC space, and their positions were compared with the SD-defined zones of the negative control group. Risk levels were classified as follows: Low risk (within 1 SD), medium risk (between 1 and 2 SD), and high risk (beyond 2 SD). Dose-dependent cardiotoxicity potential was estimated based on displacement from the negative control cluster.
To establish a risk classification framework, the standard deviation (SD) range of negative control compounds in PCA space was used to define 3 zones: Within the SD range (low risk), between 1 and 2 SD (medium risk), and beyond 2 SD (high risk) (Fig. 6B). Risk levels derived from PCA distribution were compared with IC50 and Cmax values reported for each compound and associated ion channels (Table 5).

[3] = tested on: hiPSC-CMs; experiment: Conventional MEA recording (16-electrode Axion Maestro), acute exposure; type: cell-based, human
Procedure: To enable comparison with the UHD-CMOS-MEA recordings, conventional extracellular field potential recordings were performed using 16-electrode MEA plates on a commercially available MEA system (Axion Maestro, Axion Biosystems), in accordance with the general principles of the CiPA initiative. hiPSC-CMs were cultured and maintained on the MEA plates under spontaneous beating conditions at 37 °C. Recordings were conducted after 10 to 14 DIV, and data acquisition and beat detection were performed using the built-in algorithms of the AxIS software (Axion Biosystems), without the use of external pacing. […] Each compound was applied under acute exposure conditions, and field potential recordings were obtained for 30 min following drug administration.
To evaluate the measurement capabilities of a conventional MEA system, the same set of 7 compounds was tested using the 16-electrode Axion Maestro platform.

[4] = cited from earlier work
[5] = tested on: NaV; conditions: cited from earlier work
[6] = tested on: CaV; conditions: cited from earlier work
[7] = tested on: cardiomyocytes; conditions: cited from earlier work
[8] = tested on: cardiomyocytes; conditions: BR20 (20% reduction in beat rate), cited from earlier work
[9] = tested on: cardiomyocytes; conditions: CTD90 ↑; ref Lu et al. 2019; cited from earlier work
[10] = tested on: hERG; conditions: read-out: IC50 hERG; ref Clements et al. 2015; cited from earlier work
[11] = acute, statistically significant change vs before

CC1(C)S[C@@H]2[C@H](NC(=O)[C@H](N)c3ccc(O)cc3)C(=O)N2[C@H]1C(=O)O [Amoxicillin]
significant changes in any of the measured parameters (17 beat parameters) ([1]; acute): did not induce significant changes
position in PCA space [2]: remained near the origin

CC(=O)Oc1ccccc1C(=O)O [Aspirin]
significant changes in any of the measured parameters (17 beat parameters) ([1]; acute): did not induce significant changes
position in PCA space [2]: remained near the origin

CC(C)COCC(CN(Cc1ccccc1)c1ccccc1)N1CCCC1 (stereo not drawn) [Bepridil]
Amp. CV [1, 11]: decreased and ↓
IBI (interbeat interval) [1, 11]: ↓
IBI CV [1, 11]: decreased and ↓
Veloc. CV [1, 11]: decreased and ↓
Veloc. STV [1, 11]: ↓
IBI ([3]; acute): statistically significant changes
IBI variability, amplitude variability, conduction velocity variability and STV of conduction ([3]; acute): not detected
magnitude of change in beat frequency and IBI ([3]; acute): less than 5%
Cmax Free ([4]; ref Crumb et al. 2016): 0.032 ([Crumb et al. 2016]) μM
IC50 ([5]; ref Clements et al. 2015): 2.3 µM
IC50 ([6]; ref Clements et al. 2015): 1 µM
MEA assay ([7]; FPD, ref Kaneko et al. 2014): 10 ([Kaneko et al. 2014]) (FPD) µM
Impedance assay ([8]; ref Guo et al. 2013): 0.03 ([Guo et al. 2013]) (BR20) µM
HCA assay [9]: 1.0 ([Lu et al. 2019]) (CTD90 ↑) µM

COc1ccc([C@@H]2Sc3ccccc3N(CCN(C)C)C(=O)[C@@H]2OC(C)=O)cc1 [Diltiazem]
IBI (interbeat interval) [1, 11]: reduced and ↓
BR (beat rate) [1, 11]: increased and ↑
IBI ([3]; acute): shortened
beat frequency ([3]; acute): increased
field potential (spike) amplitude ([3]; acute): significant reduction

CC(C)N(CCC(C(N)=O)(c1ccccc1)c1ccccn1)C(C)C (stereo not drawn) [Disopyramide]
Amp. (amplitude) [1, 11]: ↓
Area (propagation area) [1, 11]: ↓
IBI (interbeat interval) [1, 11]: prolonged and ↑
Veloc. (conduction velocity) [1, 11]: ↓
BR (beat rate) [1, 11]: ↓
FPI (concentration at which changes were detected) [1]: 1 (BR) μM
FPI PCA (concentration at which changes were detected) [2]: 1 µM
Cmax Free ([4]; ref Liu et al. 2021): 0.7 ([Liu et al. 2021]) μM
IC50 ([5]; ref Kramer et al. 2013): 168 µM
IC50 ([6]; ref Kramer et al. 2013): 1040 µM
MEA assay ([7]; FPDc10 (10% prolongation of FPDc), ref Ando et al. 2017): 0.74 ([Ando et al. 2017]) (FPDc10) µM
HCA assay [9]: 10 ([Lu et al. 2019]) (CTD90 ↑) µM

CC(C)NCC(O)c1ccc(O)c(O)c1 (stereo not drawn) [Isoproterenol]
average number of excitation origins per beat ([1]; 10 nM, n = 6 wells): 1.51 ± 0.02
total number of active electrodes ([1]; 30 nM, Before: 149,149.4 ± 3,090.5): 149,185.2 ± 2,882.6
beating frequency ([1]; 30 nM, before 35.5 bpm): 57.0 bpm
average number of excitation origins per beat ([1]; 30 nM, n = 6 wells): 1.61 ± 0.02
Area STV [1, 11]: decreased and ↓
IBI (interbeat interval) [1, 11]: ↓
BR (beat rate) [1, 11]: increased and ↑
FPI (concentration at which changes were detected) [1]: 0.01 (BR, IBI) μM
FPI PCA (concentration at which changes were detected) [2]: 0.01 µM
Impedance assay ([8]; ref Doherty et al. 2015): 0.01 ([Doherty et al. 2015]) (BR20) µM

Cc1cccc(C)c1OCC(C)N (stereo not drawn) [Mexiletine]
beat-wise variability in conduction speed ([1]; 10 µM, post-treatment): increased variability
average conduction velocity ([1]; 10 µM, before 0.147 ± 0.004, n = 6 wells): 0.109 ± 0.009 m/s
proportion of the area with conduction velocity exceeding 0.3 m/s ([1]; 10 µM, before 4.9%): 0.6%
beating frequency ([1]; 10 µM, before 64.5 bpm): 31.5 bpm
number of active electrodes ([1]; 10 µM, before 115,437.9 ± 582.1): 93,595.6 ± 11,323.1
Amp. (amplitude) [1, 11]: decreased and ↓
Amp. CV [1, 11]: increased and ↑
Area (propagation area) [1, 11]: decreased and ↓
IBI (interbeat interval) [1, 11]: increase and ↑
Veloc. (conduction velocity) [1, 11]: decreased and ↓
BR (beat rate) [1, 11]: decreased and ↓
FPI (concentration at which changes were detected) [1]: 10 (BR, IBI, Ampl. Area, Veloc.) μM
spontaneous beating ([3]; 10 μM): ceased entirely
IBI ([3]; acute): reached statistical significance
beat frequency ([3]; acute): reached statistical significance
conduction velocity ([3]; acute): not captured
field potential (spike) amplitude ([3]; acute): increase
magnitude of change in beat frequency and IBI ([3]; acute): 2.2%
propagation area ([3]; acute): not captured
FPI PCA (concentration at which changes were detected) [2]: 1 µM
Cmax Free ([4]; ref Crumb et al. 2016): 2.5 ([Crumb et al. 2016]) μM
IC50 ([5]; ref Clements et al. 2015): 38 µM
IC50 ([6]; ref Clements et al. 2015): 125 µM
MEA assay ([7]; Spike amp., ref Clements and Thomas 2014): 3.0 ([Clements and Thomas 2014]) (Spike amp.) µM
Impedance assay ([8]; ref Guo et al. 2013): 3.0 ([Guo et al. 2013]) (BR20) µM
IC50 [10]: 62.2 µM

C=C[C@H]1C[N@@]2CC[C@H]1C[C@@H]2[C@@H](O)c1ccnc2ccc(OC)cc12 [Quinidine]
Amp. (amplitude) [1, 11]: decreased and ↓
Area (propagation area) [1, 11]: decreased and ↓
Area CV [1, 11]: increasing and ↑
IBI (interbeat interval) [1, 11]: increasing and ↑
BR (beat rate) [1, 11]: decreased and ↓
IBI ([3]; acute): prolonged
beat frequency ([3]; acute): reduced
conduction velocity ([3]; acute): decreased
field potential (spike) amplitude ([3]; acute): decreased
propagation area ([3]; acute): decreased
position on the PCA plot relative to mechanism-of-action groups ([2]; 10 μM): plotted near compounds acting on hERG channels
Cmax Free ([4]; ref Blinova et al. 2018): 3 ([Blinova et al. 2018]) μM
MEA assay ([7]; FPD, ref Harris et al. 2013): 0.3 ([Harris et al. 2013]) (FPD) µM
Impedance assay ([8]; ref Guo et al. 2013): 10 ([Guo et al. 2013]) (BR20) µM

COc1ccc(CCN(C)CCCC(C#N)(c2ccc(OC)c(OC)c2)C(C)C)cc1OC (stereo not drawn) [Verapamil]
Amp. CV [1, 11]: ↓
Amp. STV [1, 11]: ↓
Dist Origin [1, 11]: reduced and ↓
Dist Origin STV [1, 11]: ↓
IBI (interbeat interval) [1, 11]: reduced and ↓
No. of Origin [1, 11]: ↓
BR (beat rate) [1, 11]: increased and ↑
FPI (concentration at which changes were detected) [1]: 0.003 (IBI, Amp. STV, Dist Origins, Dist Origins STV) μM
IBI ([3]; acute): shortened
beat frequency ([3]; acute): increased
field potential (spike) amplitude ([3]; acute): decreasing trend
